From patent US12234245B2, “Sulfonimidamide compounds as inhibitors of interleukin-1 activity” (Genentech, Inc., priority 2018, dated 2025)

Target: NLRP3 inflammasome (Homo sapiens, UniProt Q96P20)
Assay: THP-1 ASC-GFP speck assay
Type: cell-based
Design: host or cells: THP-1 ASC-GFP cells, PMA-differentiated, LPS-primed, nigericin-stimulated
Details: THP-1 ASC-GFP cells, PMA differentiated, LPS primed, 10 μM nigericin; read-out: THP1 ASC Speck IC50
Protocol: THP-1 ASC-GFP cell line was purchased from Invivogen, San Diego, for inflammasome activation assay. THP-1 ASC-GFP cells stably express a 37.6 kDa ASC::GFP fusion protein that enables monitoring of spec formation by microscopy after activation of NLRP3 dependent inflammasome pathway. Cells were maintained at a density of 600,000 cells/mL in growth media consisting of RPMI 1640, 2 mM L-glutamine, 25 mM HEPES and 10% heat inactivated fetal bovine serum at 37° C. and 5% CO2. Cells were passaged every 3-4 days and used for assays for up to 20 passages.
THP-1 ASC-GFP cells were collected by centrifuging cells at 800 RPM for 5 minutes. Cell culture supernatant was removed and cells were re-suspended in fresh media at density of 1×10^6 cells/mL in assay media consisting of RPMI 1640, 2 mM L-glutamine, 25 mM HEPES and 10% heat inactivated fetal bovine serum. Phorbol 12-myristate 13-acetate (PMA) (Invivogen, tlrl-pma) was added to the cell suspension at a final concentration of 500 ng/ml and mixed thoroughly. 40,000 cells were added per well of a 384 well plate and differentiated into macrophages overnight at 37° C. and 5% CO2. Cells were primed with 1 μg/mL of lipopolysaccharide (Invivogen Ultrapure lipopolysaccharide from E. coli, tlrl-3pelps) in assay media for 3 hours at 37° C. and 5% CO2. After priming, media was removed and THP-1 ASC-GFP cells were preincubated with serially diluted test compounds with starting concentration of 40 μM followed by 2-fold dilution for a 20-point curve or vehicle (DMSO) for 30 min in assay media at 37° C. and 5% CO2. Cells were then stimulated with 10 μM nigericin (Invivogen, tlrl-nig-5) for 90 min at 37° C. and 5% CO2 to activate NLRP3 dependent inflammasome pathway and spec formation. After stimulation, cells were fixed with 4.8% paraformaldehyde (Electron Microscopy Sciences #15710-S) and incubated at room temperature for 15 min. Cells were then washed 3-times with 100 μL of phosphate buffered saline and permeabilized in the presence of premeablization/block buffer for 20 min at room temperature. Cells were then washed 3-times with 100 μL phosphate buffered saline and incubated for 1 hr at room temperature in the presence of hoechst. After staining with Hoechst, cells were washed 3-times with 100 μL phosphate buffered saline and imaged for ASC spec formation.
THP-1 ASC-GFP cells were imaged in 488 and Hoechst channels. Hoechst channel was used for cell count and 488 channel was used to identify number of GFP ASC specks in imaged fields. Percentage of cells with a spec was calculated by dividing the number of GFP positive spots by total number of cells.

Sequence of NLRP3 inflammasome (Q96P20 whole entry): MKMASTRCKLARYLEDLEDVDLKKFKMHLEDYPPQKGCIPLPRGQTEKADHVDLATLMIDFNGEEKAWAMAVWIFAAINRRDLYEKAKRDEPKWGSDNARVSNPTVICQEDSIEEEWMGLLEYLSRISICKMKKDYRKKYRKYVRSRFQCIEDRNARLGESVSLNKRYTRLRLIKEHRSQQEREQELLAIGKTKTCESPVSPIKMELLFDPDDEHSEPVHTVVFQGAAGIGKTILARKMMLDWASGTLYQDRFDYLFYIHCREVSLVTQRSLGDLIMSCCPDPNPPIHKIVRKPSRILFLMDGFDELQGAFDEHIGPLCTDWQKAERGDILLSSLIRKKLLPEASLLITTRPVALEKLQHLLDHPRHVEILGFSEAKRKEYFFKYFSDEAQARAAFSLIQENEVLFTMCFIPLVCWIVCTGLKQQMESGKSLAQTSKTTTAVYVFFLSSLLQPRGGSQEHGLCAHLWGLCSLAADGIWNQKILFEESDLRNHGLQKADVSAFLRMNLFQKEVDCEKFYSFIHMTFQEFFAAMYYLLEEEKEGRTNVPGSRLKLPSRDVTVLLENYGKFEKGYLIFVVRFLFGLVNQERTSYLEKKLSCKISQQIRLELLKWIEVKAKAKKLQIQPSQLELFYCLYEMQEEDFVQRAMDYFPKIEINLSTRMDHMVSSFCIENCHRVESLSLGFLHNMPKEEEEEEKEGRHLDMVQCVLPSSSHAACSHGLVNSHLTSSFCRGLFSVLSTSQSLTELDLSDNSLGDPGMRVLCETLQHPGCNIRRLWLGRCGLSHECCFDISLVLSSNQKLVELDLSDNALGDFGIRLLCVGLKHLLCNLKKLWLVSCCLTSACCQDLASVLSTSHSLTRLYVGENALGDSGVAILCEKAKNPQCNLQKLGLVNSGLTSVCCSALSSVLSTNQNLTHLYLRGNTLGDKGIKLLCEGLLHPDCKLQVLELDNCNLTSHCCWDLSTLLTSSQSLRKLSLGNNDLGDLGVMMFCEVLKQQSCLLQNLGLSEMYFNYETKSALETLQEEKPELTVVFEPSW

Compound | IC50 [nM]
NS(=O)(=NC(=O)Nc1c2c(cc3c1CCC3)CCC2)c1cnn2c1COCCC2 (single isomer, unassigned) [Example 61] | > 20000
NS(=O)(=NC(=O)Nc1c2c(cc3c1CCC3)CCC2)c1cnn2c1COCCC2 (single isomer, unassigned) [Example 62] | 920
CC1CCOc2c(S(N)(=O)=NC(=O)Nc3c4c(cc5c3CCC5)CCC4)cnn2C1 (single isomer, unassigned) [Example 65] | 340
N#CNS(=O)(=NC(=O)Nc1c2c(cc3c1CCC3)CCC2)c1cnn2c1OCCC2 (single isomer, unassigned) [Example 69] | 30
CNCCOc1cc(C(C)C)c(NC(=O)N=S(N)(=O)c2cnn3c2OCCC3)c(C(C)C)n1 (single isomer, unassigned) [Example 70] | > 20000
CNCCOc1cc(C(C)C)c(NC(=O)N=S(N)(=O)c2cnn3c2OCCC3)c(C(C)C)n1 (single isomer, unassigned) [Example 71] | > 20000
NS(=O)(=NC(=O)Nc1c2c(cc3c1CCC3)CCC2)c1cnn2c1NCCC2 (single isomer, unassigned) [Example 72] | 2500
NS(=O)(=NC(=O)Nc1c2c(cc3c1CCC3)CCC2)c1cnn2c1NCCC2 (single isomer, unassigned) [Example 73] | > 20000
CC1CCn2ncc(S(N)(=O)=NC(=O)Nc3c4c(cc5c3CCC5)CCC4)c2OC1 (single isomer, unassigned) [Example 74] | > 20000
CC1CCn2ncc(S(N)(=O)=NC(=O)Nc3c4c(cc5c3CCC5)CCC4)c2OC1 (single isomer, unassigned) [Example 75] | 15000
COc1cc(C(C)C)c(NC(=O)N=S(N)(=O)c2cnn3c2OCC(C)(C)C3)c(C(C)C)n1 (single isomer, unassigned) [Example 76] | 2600
COc1cc(C(C)C)c(NC(=O)N=S(N)(=O)c2cnn3c2OCC(C)(C)C3)c(C(C)C)n1 (single isomer, unassigned) [Example 77] | > 20000
CC1CCn2ncc(S(N)(=O)=NC(=O)Nc3c4c(cc5c3CCC5)CCC4)c2OC1 (single isomer, unassigned) [Example 78] | 93
CC1CCn2ncc(S(N)(=O)=NC(=O)Nc3c4c(cc5c3CCC5)CCC4)c2OC1 (single isomer, unassigned) [Example 79] | 1000
CC1(C)COc2c(S(N)(=O)=NC(=O)Nc3c4c(cc5c3CCC5)CCC4)cnn2C1 (single isomer, unassigned) [Example 80] | 4500

Other lines, results leading:

IC50 [nM] | Compound
360 | CC1(C)COc2c(S(=O)(=NC(=O)Nc3c4c(cc5c3CCC5)CCC4)NC#N)cnn2C1 (racemic) [Example 94, N-cyano-N′-((1,2,3,5,6,7-hexahydro-s-indacen-4-yl)carbamoyl)-6,6-dimethyl-6,7-dihydro-5H-pyrazolo[5,1-b][1,3]oxazine-3-sulfonimidamide]
20 | CC1(C)COc2c(S(N)(=O)=NC(=O)Nc3c4c(cc5c3CCC5)CCC4)cnn2C1 (single isomer, unassigned) [Example 81]
270 | CNC1COc2c(S(N)(=O)=NC(=O)Nc3c4c(c(F)c5c3CCC5)CCC4)cnn2C1 (single isomer, unassigned) [Example 82]
8 | CNC1COc2c(S(N)(=O)=NC(=O)Nc3c4c(c(F)c5c3CCC5)CCC4)cnn2C1 (single isomer, unassigned) [Example 83]
> 20000 | CNCc1cc(C(C)C)c(NC(=O)N=S(N)(=O)c2cnn3c2OCCC3)c(C(C)C)n1 (single isomer, unassigned) [Example 84]
> 20000 | CNCc1cc(C(C)C)c(NC(=O)N=S(N)(=O)c2cnn3c2OCCC3)c(C(C)C)n1 (single isomer, unassigned) [Example 85]
> 20000 | COC1CCn2ncc(S(N)(=O)=NC(=O)Nc3c4c(cc5c3CCC5)CCC4)c2OC1 (single isomer, unassigned) [Example 86]
2900 | COC1CCn2ncc(S(N)(=O)=NC(=O)Nc3c4c(cc5c3CCC5)CCC4)c2OC1 (single isomer, unassigned) [Example 87]
